Experimental data as given in patent US20110105554A1, “MEANS FOR TREATING MYOSIN-RELATED DISEASES” (KINARIS BIOMEDICALS GMBH, priority 2007, published 2011).
Values joined by “and” are separate entries in the source; they are usually repeats but may differ in a detail not shown here. Equal values may be shown once.

Experiments:
Dictyostelium myosin-5b = biological target: T1, Dictyostelium myosin-5b (Dictyostelium discoideum, UniProt P54697); test: Actin-activated ATPase activity (NADH-coupled assay), Dictyostelium myosin-5b; format: biochemical
T1 construct: comprising amino acids 1-698, 1-765, and 1-839 respectively; made in house
Procedure: (§1) Based on the structure of the myosin-2 motor domain with bound PBP, we performed molecular modeling studies to elucidate the specificity of PBP-binding to myosins from different classes. […] To test the predictions from the modeling studies, we determined actin-activated ATPase activities in the presence of 0 to 150 μM PBP with rabbit skeletal myosin-2 heavy meromyosin (HMM), myosin-5a isolated from chicken brain, and recombinant Dictyostelium myosin class-1, 2 and 5 motor-domain constructs (FIG. 9a). […] The concentrations of PBP required for half-maximal inhibition of the different myosin motors was calculated from fitting the data to hyperbolae. […] To determine the extend to which PBP impairs the coupling between the actin- and nucleotide-binding sites of myosin, we measured the ATP turn-over rates of Dictyostelium myosin-2 and myosin-5b motor domain constructs over the range from 0 to 50 μM F-actin in the absence and presence of 25 μM PBP.
Values for the rate of maximum ATP turnover (kcat), the concentration of F-actin at which half-maximal activation is achieved (Kapp), and the apparent second order rate constant for actin binding (kcat/Kapp) were estimated from a fit of the data to a hyperbolic function. kcat/Kapp is a direct measure of the coupling efficiency between actin and nucleotide binding and can be determined from the initial slope at F-actin concentrations much smaller than Kapp. […] ATP turn-over rates of Dictyostelium myosin-2 (◯) and Dictyostelium myosin-5b (▪) at increasing F-actin concentrations in the absence (filled symbols) and presence (open symbols) of 25 μM pentabromopseudilin (FIG. 9b):
Protein preparation. Rabbit fast skeletal muscle heavy meromyosin (HMM) was prepared as described by Kron and Spudich^9. Motor domain constructs of myosin-1E, myosin-2, and myosin-5b from Dictyostelium discoideum comprising amino acids 1-698, 1-765, and 1-839 respectively, were prepared as described previouslyl^10-12. Myosin-5a heavy meromyosin from chicken brain was provided by Dr. T. Scholz (Hannover Medical School, Germany) and F-actin was prepared as described by Lehrer and Kerwar^13.
Steady-state kinetics. Basal and actin-activated Mg^2+-ATPase activities were measured with the NADH-coupled assay^19 in a buffer containing 25 mM HEPES, 25 mM KCl, and 4 mM MgCl2, 0.5 mM DTT at pH 7.0 in the presence of 1 mM ATP at 25° C. PBP was added to the reaction mixture in the absence of nucleotide and incubated for 20 minutes before the reaction was started by the addition of ATP. NADH oxidation was followed using the change in absorption at 340 nm in a Beckman DU-800 spectrophotometer.

Dictyostelium myosin-1E = biological target: T2, Dictyostelium myosin-1E (Dictyostelium discoideum, UniProt Q03479); test: Actin-activated ATPase activity (NADH-coupled assay), Dictyostelium myosin-1E; format: biochemical
T2 construct: comprising amino acids 1-698, 1-765, and 1-839 respectively; made in house
Procedure: as §1
Protein preparation. Rabbit fast skeletal muscle heavy meromyosin (HMM) was prepared as described by Kron and Spudich^9. […]
Steady-state kinetics. Basal and actin-activated Mg^2+-ATPase activities were measured with the NADH-coupled assay^19 in a buffer containing 25 mM HEPES, 25 mM KCl, and 4 mM MgCl2, 0.5 mM DTT at pH 7.0 in the presence of 1 mM ATP at 25° C. […]

DdMyosin-5b = biological target: T3, DdMyosin-5b (Dictyostelium discoideum, UniProt P54697); test: mantATP binding to DdMyosin-5b (stopped-flow)
T3 construct: comprising amino acids 1-698, 1-765, and 1-839 respectively; made in house
Procedure: Effect of Pentabromopseudilin on ATP binding kinetics to DdMyosin-5b and acto-DdMyosin-5b. (FIG. 10a) Fluorescence transients obtained upon mixing 1 μM DdMyosin-5b with 10 μM mantATP in the absence and presence of 5 μM, 25 μM, 50 μM and 100 μM PBP. Mant-fluorescence was excited at 365 nm and detected after passing through a KV 389 nm cut-off filter. The fluorescent signal of mantATP binding to DdMyosin-5b in the absence of PBP follows a single exponential function (upper curve). The presence of increasing concentrations of PBP lead to reduced amplitudes of the fluorescent signals that are best fit by double exponentials. (FIG. 10b) Plot of the relative amplitudes of mantATP binding to Dd Myosin-5b at different PBP concentrations. […] (FIG. 10c) Fluorescence transients of the ATP induced dissociation of pyrene-acto-DdMyosin-5b in the absence (black curve) and presence (grey curve) of 50 μM PBP. (FIG. 10d) Quench-flow experiments of the ATP hydrolysis reaction upon mixing 5 μM M761 with 25 μM ATP in the absence (solid squares) and presence (open circles) of 50 μM PBP. […]
The binding and hydrolysis of ATP and mantATP, respectively by myosin head fragments were analyzed in terms of the seven-step model described by Bagshaw and coworkers (4). Transients in the presence of actin were analyzed according to the mechanisms described in references 5 and 6.

[1] = Development toxicity testing on medaka embryos; conditions: medaka, in vivo
Procedure: (a) KIN-43 in concentrations between 0.5 μM and 100 μM were incubated for 48 h with 20 medaka embryos per concentration. […] (b) Light microscopy image of embryo after 48 h in the absence of KIN-43.
(§2) We are using a library of common organic molecules and functional groups and are applying an empirical force field description of the nonbonding interactions between a ligand and the binding site in order to build up de novo compounds with spatial and electrostatic properties complementary to the allosteric binding site.

[2] = system: human hepatocyte carcinoma cells (Hep G2); test: cells; conditions: Homo sapiens, HepG2, 4 h, read-out: half effective concentration EC50, neutral red uptake
Procedure: Cytotoxicity may be assayed by determining the cellular uptake of neutral red. Only living cells are capable of neutral red uptake via an active transport mechanism. For an exemplary workflow of a cytotoxicity assay, see FIG. 16.
FIG. 16: Cytotoxicity assay.
FIG. 22: Cytotoxic testing of KIN-compounds by neutral red uptake assays. (a) human hepatocyte carcinoma cells (Hep G2) were exposed to KIN-43 for 4 h in the in presence of 1% FBS.
as §2

T1 sequence (P54697 1-839): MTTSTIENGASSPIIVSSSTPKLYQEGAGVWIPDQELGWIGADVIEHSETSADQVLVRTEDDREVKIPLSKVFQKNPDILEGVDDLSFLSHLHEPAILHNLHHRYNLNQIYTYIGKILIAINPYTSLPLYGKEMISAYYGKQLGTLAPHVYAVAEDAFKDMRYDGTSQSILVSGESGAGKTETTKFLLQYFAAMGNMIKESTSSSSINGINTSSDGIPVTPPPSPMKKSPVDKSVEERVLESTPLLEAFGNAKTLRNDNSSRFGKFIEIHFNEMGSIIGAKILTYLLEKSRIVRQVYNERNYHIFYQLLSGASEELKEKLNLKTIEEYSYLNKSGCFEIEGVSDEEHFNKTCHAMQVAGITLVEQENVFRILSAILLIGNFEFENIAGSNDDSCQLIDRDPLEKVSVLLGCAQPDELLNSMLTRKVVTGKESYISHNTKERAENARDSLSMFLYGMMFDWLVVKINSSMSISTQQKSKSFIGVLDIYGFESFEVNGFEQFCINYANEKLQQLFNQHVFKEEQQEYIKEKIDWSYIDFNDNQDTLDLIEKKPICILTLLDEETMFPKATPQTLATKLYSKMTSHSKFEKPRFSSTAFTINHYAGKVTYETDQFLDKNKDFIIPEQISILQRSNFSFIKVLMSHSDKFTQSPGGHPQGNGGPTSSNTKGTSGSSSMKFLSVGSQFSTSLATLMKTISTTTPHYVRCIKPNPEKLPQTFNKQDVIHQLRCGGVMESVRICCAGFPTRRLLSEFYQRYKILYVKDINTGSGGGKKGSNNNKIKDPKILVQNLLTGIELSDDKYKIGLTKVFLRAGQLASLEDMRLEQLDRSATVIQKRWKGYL
T2 sequence (Q03479 1-698): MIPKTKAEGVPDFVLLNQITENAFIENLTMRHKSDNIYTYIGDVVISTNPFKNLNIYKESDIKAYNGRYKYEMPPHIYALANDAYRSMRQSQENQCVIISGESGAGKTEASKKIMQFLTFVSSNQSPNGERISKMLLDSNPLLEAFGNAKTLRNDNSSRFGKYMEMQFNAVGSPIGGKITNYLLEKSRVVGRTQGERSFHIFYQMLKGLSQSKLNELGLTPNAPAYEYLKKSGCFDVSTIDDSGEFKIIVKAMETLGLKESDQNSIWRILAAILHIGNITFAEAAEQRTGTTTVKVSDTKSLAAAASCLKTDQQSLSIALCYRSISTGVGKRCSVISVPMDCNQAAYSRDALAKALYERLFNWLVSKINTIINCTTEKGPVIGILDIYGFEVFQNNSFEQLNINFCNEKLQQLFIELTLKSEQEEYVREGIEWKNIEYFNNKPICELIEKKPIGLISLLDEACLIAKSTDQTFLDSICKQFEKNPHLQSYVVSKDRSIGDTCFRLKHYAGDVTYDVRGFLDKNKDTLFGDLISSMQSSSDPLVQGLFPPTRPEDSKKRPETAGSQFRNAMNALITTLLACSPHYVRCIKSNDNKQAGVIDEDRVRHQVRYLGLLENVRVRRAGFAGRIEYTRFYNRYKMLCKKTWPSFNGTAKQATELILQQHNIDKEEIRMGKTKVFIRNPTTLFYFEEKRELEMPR
T3 sequence (P54697 1-839): as the sequence (P54697 1-839) above
Text for mammalian myosin-5a: In this context, preferred selectivity means a more than 20-fold smaller IC50 value compared to fast skeletal muscle myosin-2 and other references myosins.

Oc1c(Br)cc(Br)cc1-c1[nH]c(Br)c(Br)c1Br [KIN-43]
fold weaker coupling (kcat/Kapp) (Dictyostelium myosin-5b; 25 μM PBP): 26 fold | kcat/Kapp (apparent second order rate constant for actin binding) (Dictyostelium myosin-5b; 25 μM PBP, 0 to 50 μM F-actin, 0.32 without): 12000 M⁻¹ s⁻¹ | ATPase activity at 30 μM F-actin in the presence of inhibitor (Dictyostelium myosin-5b; >100 μM PBP, 5.5 s^−1 without): 0.05 s⁻¹ | Ki (Dictyostelium myosin-5b; Ki, half-maximal inhibition of actin-activated ATPase activity, 0 to 150 μM PBP, hyperbolic fit): 19.3 µM and 19.1 µM | fold decrease in kcat (Dictyostelium myosin-5b; class-5 myosins): approximately 8 fold | fold increase in Kapp (Dictyostelium myosin-5b; class-5 myosins): more than 25 fold | Ki (Dictyostelium myosin-1E): 49.5 µM | ATPase activity at 30 μM F-actin in the presence of inhibitor (Dictyostelium myosin-1E; >100 μM PBP, 3.5 s^−1 without): 0.10 s⁻¹ | Kd (DdMyosin-5b): 21 ± 2 µM | LC50 at 48 h [1]: 3 µM | EC50 [2]: 0.03 µM | preferred selectivity: fold smaller IC50 compared to fast skeletal muscle myosin-2 and other reference myosins (mammalian myosin-5a): more than 20 fold
